# Paper PMC4488483, “Reversible Oxidation of a Conserved Methionine in the Nuclear Export Sequence Determines Subcellular Distribution and Activity of the Fungal Nitrate Regulator NirA” (PLoS Genetics, 2015)
# Experiments:
# FmoB [1] = target: T1, FmoB (Aspergillus nidulans, UniProt Q5B5S0); assay: UV-visible absorbance spectrum of FAD saturated enzyme; type: binding; details: purified recombinant FmoB
# T1 construct: gene ANIA_04110; complete fmoB gene from cDNA, expressed in E. coli, HIS-Select and size exclusion purified, ~60 kDa on SDS-PAGE, FAD saturated
# T1 sequence (Q5B5S0 1-492): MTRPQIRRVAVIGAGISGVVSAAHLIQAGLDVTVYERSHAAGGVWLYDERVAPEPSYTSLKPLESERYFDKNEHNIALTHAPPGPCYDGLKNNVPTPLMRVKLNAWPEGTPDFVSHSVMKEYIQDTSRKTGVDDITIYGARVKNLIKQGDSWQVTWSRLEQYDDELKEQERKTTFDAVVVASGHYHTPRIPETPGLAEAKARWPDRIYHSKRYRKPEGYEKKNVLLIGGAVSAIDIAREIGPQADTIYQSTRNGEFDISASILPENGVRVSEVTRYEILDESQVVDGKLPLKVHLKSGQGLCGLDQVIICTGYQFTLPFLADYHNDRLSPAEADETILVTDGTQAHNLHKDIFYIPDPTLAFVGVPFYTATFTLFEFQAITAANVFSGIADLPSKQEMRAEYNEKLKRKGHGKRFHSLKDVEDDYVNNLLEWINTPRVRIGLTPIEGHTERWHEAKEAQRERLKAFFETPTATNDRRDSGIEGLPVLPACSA
# FmoB [2] = target: T1, FmoB; assay: HPLC of L-methionine sulfoxide formed; type: biochemical; details: NADPH-dependent; up to 5 mM methionine; low rate
# FmoB [3] = target: T1, FmoB; assay: NADPH consumption, absorbance at […] nm; type: biochemical; details: 2 uM FmoB, 200 uM NADPH, 2 mM substrate
structure (smiles),measurement,setting,value
Cc1cc2nc3c(=O)[nH]c(=O)nc-3n(C[C@H](O)[C@H](O)[C@H](O)COP(=O)(O)OP(=O)(O)OC[C@H]3O[C@@H](n4cnc5c(N)ncnc54)[C@H](O)[C@@H]3O)c2cc1C [FAD],UV-visible absorbance spectrum of FAD saturated enzyme,FmoB [1],An UV-visible absorbance spectra of FAD saturated FmoB is shown as inset
CSCC[C@H](N)C(=O)O [L-methionine],HPLC of L-methionine sulfoxide formed,FmoB [2],it is able to convert free methionine to the sulfoxide form
N[C@@H](CS)C(=O)O [cysteine],"NADPH consumption, absorbance at 340 nm",FmoB [3],"free cysteine, dithiothreitol (DTT) or β-mercaptoethanol were favourable substrates for FmoB"
